Assay results taken from PubChem BioAssay (NCI).
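Tested at 5 concentrations; 48 h exposure; 96-well plates; endpoints linearly interpolated, else capped at highest concentration. TGI marks complete inhibition of growth.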

Assays:
Test in all cases: DTP human tumour cell line panel, 48 h
[1] = test system: 786-0 renal
[2] = test system: A498 renal
[3] = test system: A549 NSCLC
[4] = test system: ACHN renal
[5] = test system: CAKI-1 renal
[6] = test system: CCRF-CEM leukemia
[7] = test system: COLO 205 colon
[8] = test system: DLD-1 colon
[9] = test system: DMS 114 small cell lung
[10] = test system: DMS 273 small cell lung
[11] = test system: EKVX NSCLC
[12] = test system: HCC-2998 colon
[13] = test system: HCT-116 colon
[14] = test system: HCT-15 colon
[15] = test system: HL-60(TB) leukemia
[16] = test system: HOP-18 NSCLC
[17] = test system: HOP-62 NSCLC
[18] = test system: HOP-92 NSCLC
[19] = test system: HT29 colon
[20] = test system: IGROV1 ovarian
[21] = test system: K-562 leukemia
[22] = test system: KM12 colon
[23] = test system: KM20L2 colon
[24] = test system: LOX IMVI melanoma
[25] = test system: LXFL 529 NSCLC
[26] = test system: M14 melanoma
[27] = test system: M19-MEL melanoma
[28] = test system: MALME-3M melanoma
[29] = test system: MOLT-4 leukemia
[30] = test system: NCI-H226 lung
[31] = test system: NCI-H23 lung
[32] = test system: NCI-H460 lung
[33] = test system: NCI-H522 lung
[34] = test system: OVCAR-3 ovarian
[35] = test system: OVCAR-4 ovarian
[36] = test system: OVCAR-5 ovarian
[37] = test system: OVCAR-8 ovarian
[38] = test system: RXF 393 renal
[39] = test system: RXF-631 renal
[40] = test system: SF-268 CNS
[41] = test system: SF-295 CNS
[42] = test system: SF-539 CNS
[43] = test system: SK-MEL-2 melanoma
[44] = test system: SK-MEL-28 melanoma
[45] = test system: SK-MEL-5 melanoma
[46] = test system: SK-OV-3 ovarian
[47] = test system: SN12C renal
[48] = test system: SNB-19 CNS
[49] = test system: SNB-75 CNS
[50] = test system: SNB-78 CNS
[51] = test system: SR leukemia
[52] = test system: SW-620 colon
[53] = test system: TK-10 renal
[54] = test system: U251 CNS
[55] = test system: UACC-257 melanoma
[56] = test system: UACC-62 melanoma
[57] = test system: UO-31 renal
[58] = test system: RPMI-8226 leukemia
[59] = test system: XF 498 CNS

Measured: TGI

O=c1c2ccccc2nc(/C=C(\O)c2ccccc2)n1-c1ccccc1Cl
not listed: [58] | [59]
> 100 µM: all other assays above

C=CCNC(=O)/C=C\C(=O)O
not listed: [58] | [59]
> 100 µM: all other assays above

COc1cc2c[n+]3ccc4cc(OC)c(OC)cc4c3cc2cc1O
not listed: [5] | [7] | [9] | [10] | [17] | [30] | [34] | [35] | [50]
> 100 µM: all other assays above
